Measured values reported in ChEMBL document CHEMBL1201862, “PubChem BioAssay data set” (2004).
Active and inactive are the calls of the source.

Assays:
cells = assay type: functional
[1] = biological target: Glucose-6-phosphate 1-dehydrogenase (Homo sapiens, UniProt P11413); test: inhibition of Homo sapiens G6PD, dose series – biochemical, fluorescence, selectivity assay for P. falciparum G6PD inhibitor project, dose response (AID 504792); assay type: functional
[2] = biological target: T1, Heat shock factor protein 1 (Mus musculus, UniProt P38532); test: enhancement of HSF1-driven luciferase signal – cell-based, NIH3T3, luminescence, dose retest, confirmation (AID 435004); assay type: functional;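 further: stress induced by proteasome inhibitor MG132 added 30 min after compound; luciferase reporter driven by HSF1 response element in NIH3T3 cells; actives raise luminescence as potentiators of the MG132 stress response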
T1 sequence (P38532 whole entry): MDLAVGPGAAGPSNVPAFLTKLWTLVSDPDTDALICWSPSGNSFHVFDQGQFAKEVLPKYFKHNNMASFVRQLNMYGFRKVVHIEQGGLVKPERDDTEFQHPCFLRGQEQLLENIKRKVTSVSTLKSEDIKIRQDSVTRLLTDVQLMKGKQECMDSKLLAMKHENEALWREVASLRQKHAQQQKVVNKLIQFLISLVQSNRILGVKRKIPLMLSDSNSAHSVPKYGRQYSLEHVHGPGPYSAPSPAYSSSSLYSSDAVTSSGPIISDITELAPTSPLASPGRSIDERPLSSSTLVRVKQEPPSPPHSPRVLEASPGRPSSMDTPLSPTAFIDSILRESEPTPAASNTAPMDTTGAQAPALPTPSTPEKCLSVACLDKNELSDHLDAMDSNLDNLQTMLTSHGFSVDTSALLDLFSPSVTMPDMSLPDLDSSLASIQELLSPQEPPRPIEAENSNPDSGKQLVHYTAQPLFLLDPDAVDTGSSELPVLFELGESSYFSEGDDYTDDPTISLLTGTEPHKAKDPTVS

[3] = NIH3T3 cell viability loss – ATP luminescence, mouse fibroblasts, counter-screen, dose response (AID 2010); assay type: functional, cell-based;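 further: cells exposed to compound for about 90 hours before reading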
[4] = biological target: Heat shock protein HSP 90-alpha (Homo sapiens, UniProt P07900); assay type: functional, organism-based
[5] = biological target: Lysine-specific demethylase 4C (Homo sapiens, UniProt Q9H3R0); test: inhibition of JMJD2C H3K9me3 demethylation – biochemical, DELFIA europium, cherry-picked samples, dose response (AID 488835); assay type: functional
[6] = THP-1 cell cytotoxicity, dose response, cytotoxicity control for non-replicating M. tuberculosis project (AID 489025); assay type: functional
Hexokinase HKDC1 = biological target: T2, Hexokinase HKDC1 (Homo sapiens, UniProt Q2TB90); test: activation of HKDC1 glucose phosphorylation – biochemical, W721R variant, dose response (AID 504730); assay type: functional
T2 sequence (Q2TB90 whole entry): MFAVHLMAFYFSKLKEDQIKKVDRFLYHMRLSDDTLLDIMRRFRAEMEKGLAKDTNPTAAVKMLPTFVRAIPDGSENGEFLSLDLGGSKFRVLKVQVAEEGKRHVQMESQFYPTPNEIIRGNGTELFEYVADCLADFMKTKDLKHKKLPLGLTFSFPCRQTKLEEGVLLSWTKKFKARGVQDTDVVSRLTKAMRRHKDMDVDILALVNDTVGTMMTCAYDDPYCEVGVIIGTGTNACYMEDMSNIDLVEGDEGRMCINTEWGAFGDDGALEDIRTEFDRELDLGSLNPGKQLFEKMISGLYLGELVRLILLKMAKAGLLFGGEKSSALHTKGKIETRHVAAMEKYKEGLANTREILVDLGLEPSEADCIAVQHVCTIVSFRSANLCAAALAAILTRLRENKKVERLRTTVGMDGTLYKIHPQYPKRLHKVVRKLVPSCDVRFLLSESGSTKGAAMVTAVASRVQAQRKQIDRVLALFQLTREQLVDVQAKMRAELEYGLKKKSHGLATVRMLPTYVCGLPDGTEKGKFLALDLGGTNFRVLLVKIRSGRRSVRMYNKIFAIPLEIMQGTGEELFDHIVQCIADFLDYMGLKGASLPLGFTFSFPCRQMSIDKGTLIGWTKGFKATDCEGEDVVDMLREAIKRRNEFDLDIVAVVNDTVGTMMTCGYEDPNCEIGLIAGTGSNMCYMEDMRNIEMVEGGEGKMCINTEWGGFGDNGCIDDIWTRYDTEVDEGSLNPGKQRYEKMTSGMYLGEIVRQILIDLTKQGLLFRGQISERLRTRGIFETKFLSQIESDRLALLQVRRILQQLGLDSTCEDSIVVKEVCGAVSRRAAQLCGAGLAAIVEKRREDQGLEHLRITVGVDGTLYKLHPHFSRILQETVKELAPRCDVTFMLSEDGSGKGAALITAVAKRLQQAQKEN

Sequence of Lysine-specific demethylase 4C (Q9H3R0 whole entry): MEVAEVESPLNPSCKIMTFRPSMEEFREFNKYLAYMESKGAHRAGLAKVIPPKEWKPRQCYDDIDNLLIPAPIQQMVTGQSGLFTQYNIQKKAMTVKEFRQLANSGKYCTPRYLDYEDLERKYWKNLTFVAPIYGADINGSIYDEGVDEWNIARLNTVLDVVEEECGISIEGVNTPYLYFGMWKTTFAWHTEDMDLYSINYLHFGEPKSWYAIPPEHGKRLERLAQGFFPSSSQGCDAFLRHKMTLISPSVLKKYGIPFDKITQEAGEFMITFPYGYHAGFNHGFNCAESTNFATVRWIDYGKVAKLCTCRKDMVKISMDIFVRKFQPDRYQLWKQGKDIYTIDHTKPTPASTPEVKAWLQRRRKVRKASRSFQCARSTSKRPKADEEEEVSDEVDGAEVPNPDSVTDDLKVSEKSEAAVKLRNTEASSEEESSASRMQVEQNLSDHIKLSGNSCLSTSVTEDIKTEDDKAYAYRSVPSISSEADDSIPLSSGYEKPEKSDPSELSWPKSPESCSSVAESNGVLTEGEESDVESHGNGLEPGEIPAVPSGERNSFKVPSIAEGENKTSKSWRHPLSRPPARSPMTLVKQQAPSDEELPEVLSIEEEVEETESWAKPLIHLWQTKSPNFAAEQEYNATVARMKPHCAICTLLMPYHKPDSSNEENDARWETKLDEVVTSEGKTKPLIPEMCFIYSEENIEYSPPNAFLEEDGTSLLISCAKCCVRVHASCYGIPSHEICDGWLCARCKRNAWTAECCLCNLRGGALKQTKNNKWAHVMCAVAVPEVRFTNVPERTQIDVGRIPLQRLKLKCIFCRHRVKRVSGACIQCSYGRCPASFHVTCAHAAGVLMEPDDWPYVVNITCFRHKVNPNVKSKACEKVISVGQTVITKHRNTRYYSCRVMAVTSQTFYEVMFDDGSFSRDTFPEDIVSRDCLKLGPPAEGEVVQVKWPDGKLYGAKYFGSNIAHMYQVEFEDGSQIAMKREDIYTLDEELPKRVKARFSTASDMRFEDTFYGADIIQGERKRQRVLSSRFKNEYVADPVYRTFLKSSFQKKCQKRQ
Sequence of Glucose-6-phosphate 1-dehydrogenase (P11413 whole entry): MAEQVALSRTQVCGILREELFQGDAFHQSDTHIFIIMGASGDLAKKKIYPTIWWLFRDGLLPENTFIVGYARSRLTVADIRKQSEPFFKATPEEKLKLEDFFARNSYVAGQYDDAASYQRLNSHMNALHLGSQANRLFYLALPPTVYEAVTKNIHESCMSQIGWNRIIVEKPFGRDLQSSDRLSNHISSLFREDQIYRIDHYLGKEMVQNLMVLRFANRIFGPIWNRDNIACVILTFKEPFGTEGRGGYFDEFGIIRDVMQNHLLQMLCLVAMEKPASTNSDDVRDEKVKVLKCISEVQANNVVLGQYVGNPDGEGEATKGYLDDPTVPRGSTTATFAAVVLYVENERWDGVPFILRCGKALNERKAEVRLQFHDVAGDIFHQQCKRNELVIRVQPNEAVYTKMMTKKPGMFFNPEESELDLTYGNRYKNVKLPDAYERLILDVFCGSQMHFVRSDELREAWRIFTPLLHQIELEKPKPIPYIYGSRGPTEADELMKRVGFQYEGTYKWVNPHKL

In the case of `Clc1ccc(/N=c2\ssnc2Cl)nc1`, the IC50 (cells) is reported as 32.9 µM (active), the IC50 [1] is reported as > 80 µM (inactive) and the EC50 [2] is reported as 16 µM (active). For the same molecule, the EC50 [3] was > 60 µM (not active), the AC50 [4] was 1.73 µM (active) and the AC50 [5] was 0.669 µM (active). The CC50 [6] was 17.5 µM (active) and the EC50 (Hexokinase HKDC1) was 50.3 µM (inactive).
